In patent US9340577B2, “HLA binding motifs and peptides and their uses” (priority 1992, dated 2016):
No end group written: not given here.

What was measured:
Assay in all cases: biochemical
Format in all cases: binding
[1] = molecular target: HLA-A*0201 (HLA-A2.1) (Homo sapiens, UniProt P04439, D140Y/D185E/D98H/E176V/E277Q/G131W/G231S/I119V/I121R/I166T/I218V/L300P/L318F/N151K/N90K/P208A/P217A/Q86G/Q94H/R138H/R169H/T345S)
[2] = molecular target: A*0202 (Homo sapiens, UniProt P04439, D140Y/D185E/D98H/E176V/E277Q/G131W/G231S/I119L/I121R/I166T/I218V/L180W/L300P/L318F/N151K/N90K/P208A/P217A/Q67R/Q86G/Q94H/R138H/R169H/T345S)
[3] = molecular target: A*0203 (Homo sapiens, UniProt P04439, A173T/D140Y/D185E/D98H/E277Q/G131W/G231S/I119V/I121R/I166T/I218V/L180W/L300P/L318F/N151K/N90K/P208A/P217A/Q86G/Q94H/R138H/R169H/T345S)
[4] = molecular target: A*0206 (Homo sapiens, UniProt P04439, D140Y/D185E/D98H/E176V/E277Q/F33Y/G131W/G231S/I119V/I121R/I166T/I218V/L300P/L318F/N151K/N90K/P208A/P217A/Q86G/Q94H/R138H/R169H/T345S)
[5] = molecular target: A*6802 (Homo sapiens, UniProt P04439, A269V/D140Y/D185E/E176V/E277Q/E87N/F33Y/G231S/I121R/I166T/I218V/L180W/L300P/L318F/N151K/P208A/P217A/Q86R/R138H/R169H/S129P/T345S/V36M)

Sequence | IC50 [1] [nM] | IC50 [2] [nM] | IC50 [3] [nM] | IC50 [4] [nM] | IC50 [5] [nM]
FLSHVKIPV [Peptide 1578.55] | 41 | 4 | 9.8 | 91 | 60
FLSYFKLFL [Peptide 1578.37] | 30 | 2.1 | 8.6 | 45 | 4750
FLVAFKQFL [Peptide 1578.42] | 55 | 0.43 | 4.7 | 81 | 1400
FQFQNPFPL [Peptide 1578.40] | 8.4 | 0.75 | 3.5 | 6.3 | 3160
FQGSVISFV [Peptide 1578.38] | 15 | 1.8 | 1.8 | 13 | 564
FQKYKTLFV [Peptide 1578.54] | 1140 | 821 | 30 | 419 | > 20000
FQYAQLADV [Peptide 1578.36] | 42 | 3.7 | 12 | 32 | 16900
GLFQQSTQEL [Peptide 9013.0176] | 1360 | 6.2 | 48 | > 20000 | > 20000
GLFRVYPEL [Peptide 9013.0039] | 43 | 13 | 229 | 1420 | > 20000
GLNRTTVTV [Peptide 9013.0066] | 109 | 10 | 3.8 | 4730 | > 20000
GLQQATPGPA [Peptide 9013.0143] | 4870 | 220 | 3.9 | > 20000 | > 20000
GLSAGATVGV [Peptide 9013.0250] | 97 | 2.9 | 2.8 | 1100 | 1150
GLTVGIMIGVL [Peptide 9013.0343] | 5010 | 914 | 290 | 11500 | 2640
GMIDDVTAI [Peptide 1578.44] | 23 | 5.3 | 7.3 | 37 | > 20000
GMIDDVTPI [Peptide 1578.24] | 25 | 0.2 | 0.63 | 24 | > 20000
GTQQATPGPV [Peptide 9013.0142] | > 20000 | > 20000 | 36 | > 20000 | > 20000
HLQVLFIAKI [Peptide 9013.0244] | 5930 | 789 | 29 | 121 | > 20000
IIQNDTGFYV [Peptide 9013.0146] | 155 | 25 | 548 | 201 | 2600
IIYPNASLLV [Peptide 9013.0144] | 466 | 9.9 | 4.7 | 70 | 830
IIYPNASLV [Peptide 9013.0029] | 230 | 24 | 4 | 152 | 409
ILYPNASLLI [Peptide 9013.0145] | 88 | 1.3 | 2.8 | 252 | 3120
IQGAVISFV [Peptide 1578.13] | 45 | 12 | 13 | 35 | 4880
IQNDTGFYTV [Peptide 9013.0149] | 600 | 20 | 31 | 63 | 8840
IQNDTGFYV [Peptide 9013.0035] | 148 | 16 | 37 | 32 | 4500
IVNTTYLWWV [Peptide 9013.0196] | 5940 | 1440 | 389 | 91 | 71
KLMSQLLNI [Peptide 1578.29] | 35 | 1.6 | 12 | 56 | > 20000
KLTFLCVTL [Peptide 1516.14] | 19 | 3 | 41 | 123 | > 20000

Sequence | IC50 [1] [nM] | IC50 [2] [nM] | IC50 [3] [nM] | IC50 [4] [nM] | IC50 [5] [nM]
KTITVSAEV [Peptide 9013.0083] | 971 | 42 | 2.6 | 79 | 15
LIQPFILYA [Peptide 1578.07] | 124 | 70 | 46 | 71 | 8630
LLFWNPPTTA [Peptide 9013.0123] | 25 | 1.3 | 1.6 | 1170 | 2140
LLIESTPFNVA [Peptide 9013.0268] | 121 | 3.3 | 3.5 | 107 | > 20000
LLLSNDNRTL [Peptide 9013.0205] | 8190 | 303 | 4180 | > 20000 | > 20000
LLLSNGNRTL [Peptide 9013.0227] | 1550 | 158 | 412 | 3990 | > 20000
LLLTASLLV [Peptide 9013.0002] | 28 | 1330 | 293 | 79 | > 20000
LLTFWNPPTV [Peptide 9013.0120] | 170 | 10 | 3.2 | 1000 | 607
LQGSVICFV [Peptide 1578.06] | 23 | 33 | 21 | 52 | 3560
LQLSNDNRTLV [Peptide 9013.0307] | 12800 | 1390 | 5200 | 99 | > 20000
LTFWNPPTTV [Peptide 9013.0122] | 210 | 38 | 1.9 | 339 | 23
MAFEYALLA [Peptide 1578.09] | 226 | 52 | 74 | 100 | 29
MTRNPPVPV [Peptide 1539.02] | 9170 | 1140 | 35 | > 20000 | 117
MTSNPAIPV [Peptide 1539.03] | 1470 | 951 | 68 | 911 | 2
NLAEGKEVL [Peptide 9013.0016] | 3840 | 14 | 293 | > 20000 | > 20000
NLNLSCHAV [Peptide 9013.0054] | 633 | 15 | 39 | 7130 | 2200
NVAEGKEVV [Peptide 9013.0015] | > 20000 | 1310 | 4750 | > 20000 | 354
PLYSWRINGI [Peptide 9013.0236] | > 20000 | 348 | 14 | > 20000 | > 20000
PQYSWRINGV [Peptide 9013.0235] | > 20000 | 1330 | 25 | > 20000 | > 20000
QITPLCVTL [Peptide 1516.13] | 976 | 124 | 4390 | 634 | 2870
QLHTQELFI [Peptide 9013.0079] | 832 | 25 | 264 | 11700 | 19100
QLHTQVLFIA [Peptide 9013.0242] | 3940 | 322 | 163 | > 20000 | > 20000
QLSNGNRTL [Peptide 9013.0050] | 16100 | 39 | 43 | > 20000 | 8650
QLSNGNRTLTL [Peptide 9013.0292] | > 20000 | 80 | 683 | > 20000 | > 20000
QLSNGNRTLV [Peptide 9013.0229] | > 20000 | 66 | 146 | > 20000 | > 20000
QLSTQELFI [Peptide 9013.0057] | 65 | 4.5 | 27 | 7470 | 8170
